The values that follow come from US20090192192A1, “INHIBITORS OF BIOFILM FORMATION OF GRAM-POSITIVE AND GRAM-NEGATIVE BACTERIA” (priority 2007, published 2009).

As usually defined, the inhibition is how much of the control response was suppressed. Lower therefore signals a weak effect.

For the experiment, the system named is Pseudomonas aeruginosa PAO1. As to the kind of experiment: MBEC assay, biofilm formation of P. aeruginosa PAO1. Format: cell-based. The following applies: compound concentration 100 μM, class symbols. How it is done:
The compound to be tested was dissolved in DMSO to obtain a concentration that was 100 times that of the final concentration required (1 mM for the 10 μM assay and 10 mM for the 100 μM assay). 1.5 μL of the above solution was placed into each well of a 96 well plate (final volume in each well=150 μL, final DMSO concentration of 1% (v/v)).
To grow the organism and form a biofilm, a cryogenic stock of the test organism (at −70° C.) was used. A first sub-culture was streaked out onto TSA (tryptic soy agar), upon which the plate was incubated at 35±2° C. for 24 hours and stored wrapped in parafilm at 4° C. afterwards. From this first sub-culture, a second sub-culture was streaked out onto TSA. The plate was incubated at 35±2° C. for 24 hours. The second sub-culture was used within 24 hours starting from the time it was first removed from incubation. Using the second sub-culture an inoculum in 3 mL sterile water that matches a 0.5 McFarland Standard (1.5×10^8 cells per mL) was created in a glass test tube using a sterile cotton swab. 2.2 mL of this solution was diluted in 22 mL 100% TSB (tryptic soy broth) medium to a cell density of approximately […]. The diluted organism was inverted 3-5 times to achieve uniform mixing of the organism. One sample (100 μl) of the diluted organism was used for an inoculum check by serially diluting and spot plating on TSA.
To prepare a challenge plate, […] of the diluted organism was added to each well of a 96 well plate except the sterility control wells. The test compounds were added to the wells to make up final concentrations of 10 μM and […] (1.5 μL/well) in the designated location in the test plate. 128.5 μL of 100% universal neutralizer (1% Tween 80 in Cation Adjusted Mueller Hinton Broth, CAMHB) was placed in each of the wells. 130 μL of media was added to the growth control wells. 128.5 μL of media+1.5 μL of DMSO were added to a second set of growth control wells. 150 μL of media was added to the sterility controls. Each sample was run in triplicate. The plate was covered by a lid with a peg per well and wrapped in parafilm and placed on a shaker in a humidified incubator (GeneVac) at 35±+2° C. for 24 hours set at 110 rpm.
Rinse plate(s) of 0.9% saline (200 μL per well) were prepared in a sterile 96 well microtitre plate. Lid-associated pegs were rinsed in 0.9% saline for approximately 1-2 minutes. The peg lid was transferred to the recovery media (1.0% Tween 80 in CAMHB) then sonicated for 30 minutes to dislodge surviving biofilm. Following sonication, 100 μL from each well of the 96 well plate was placed into the first 12 wells of the first row of a 96 well microtiter plate. 180 μl of 0.9% sterile saline was placed in the remaining rows. A serial dilution (10^0-10^7) was prepared by moving 20 μl down each of the 8 rows. 20 μl from each well was removed and spot plated on a prepared TSA. In the remaining recovery plate, 100 μl of fresh growth media (1.0% Tween 80 in CAMHB) was placed in each well to replace the amount removed. The recovery plate was covered with a regular lid and incubated at 35±2° C. for 24 hours and read visually to confirm antimicrobial activity of the test compounds.
The compounds of the present disclosure have been tested regarding their efficiency to inhibit biofilm formation of Staphylococcus aureus U of C#18 (MRSA), Staphylococcus aureus 456 (MRSA), Staphylococcus epidermidis RP62A, and Pseudomonas aeruginosa PAO1.

For `CCCCCCCCCCCCCCNC(=O)Nc1cc(C)nn1C` [Example 87, 1-(1,3-dimethylpyrazol-5-yl)-3-tetradecylurea], the inhibition at 100 µM was under 20%.

`CCCCCCCCCOCC(=O)N(C)c1ccc(F)cc1` [Example 102, N-(4-fluorophenyl)-N-methyl-2-(nonyloxy)acetamide]: the inhibition at 100 µM fell in the range of 20 to 50%.

Take `CCCCCCCCCCCC(=O)N[C@@H]1CCCC[C@H]1O` (relative stereo) [Example 35, trans-N-(2-hydroxycyclohexyl)dodecanamide]: the inhibition at 100 µM was in the range of 20 to 50%.

`CCCCCCCCCCCC(=O)N1CCC(C(=O)Nc2ccccc2)C1` (stereo not drawn) [Example 151, 1-dodecanoyl-N-phenylpyrrolidine-3-carboxamide] showed an inhibition at 100 µM of 20 to 50%.

In the case of `CCCCCCCCCCCC(=O)N1CCC(C(=O)NC)C1` (stereo not drawn) [Example 146, 1-dodecanoyl-N-methylpyrrolidine-3-carboxamide], the inhibition at 100 µM is over 50%.

Consider `CCCCCCCCCC(=O)N[C@H]1CCOC1=O` [Example 32, N-decanoyl-L-homoserinelactone], for which the inhibition at 100 µM was under 20%.

`CCCCCCNC(=O)Nc1cc(C(C)(C)C)nn1C` [Example 43, 1-(3-tert-butyl-1-methylpyrazol-5-yl)-3-hexylurea]: the inhibition at 100 µM was 20 to 50%.

The compound `CCCCCCCCCCCC(=O)Nc1ccc(F)cc1F` [Example 21, N-(2,4-difluorophenyl)dodecanamide] registered an inhibition at 100 µM of under 20%.

With `CCCCCCCCCC(=O)NC(=O)Nc1cc(C)ns1` [Example 101, N-(3-methylisothiazol-5-ylcarbamoyl)decanamide], the inhibition at 100 µM was in the range of 20 to 50%.

Turning to `CCCCCCCCCCCC(=O)N1CCC(C(=O)N(C(C)C)C(C)C)C1` (stereo not drawn) [Example 150, 1-dodecanoyl-N,N-diisopropylpyrrolidine-3-carboxamide], the inhibition at 100 µM is over 50%.

The compound `CCN(CC)C(=O)C1CCCN(C(=O)CCCCCCN2CCN(C)CC2)C1` (stereo not drawn) [Example 140, N,N-diethyl-1-(7-(4-methylpiperazin-1-yl)heptanoyl)piperidine-3-carboxamide] yielded an inhibition at 100 µM of under 20%.

As for `CCCCCCCCCCNC(=O)N[C@@H](C)c1ccccc1` [Example 59, (S)-1-decyl-3-(1-phenylethyl)urea], the inhibition at 100 µM is under 20%.

On to `CCCCOCCOCC(=O)N(C)c1ccc(F)cc1` [Example 119, 2-(2-butoxyethoxy)-N-(4-fluorophenyl)-N-methylacetamide], for which the inhibition at 100 µM is under 20%.

On to `CCCCCCCCOCCC(=O)Nc1cc(-c2ccccc2)nn1C` [Example 117, N-(1-methyl-3-phenylpyrazol-5-yl)-3-(octyloxy)propanamide], for which the inhibition at 100 µM is over 50%.

Regarding `CCCCCCCCCCCC(=O)N1CCCC(C(N)=O)C1` (stereo not drawn) [Example 130, 1-dodecanoylpiperidine-3-carboxamide], the inhibition at 100 µM was over 50%.

`CCCCOCCOCC(=O)Nc1cc(-c2ccccc2)nn1C` [Example 124, 2-(2-butoxyethoxy)-N-(1-methyl-3-phenylpyrazol-5-yl)acetamide] displayed an inhibition at 100 µM of 20 to 50%.

In the case of `CCCCCCCCCCCC(=O)Nc1ccc(F)cc1` [Example 19, N-(4-fluorophenyl)dodecanamide], the inhibition at 100 µM was under 20%.

Turning to `CCCCCCCCCCCCCCCCCCNC(=O)Nc1cc(C)nn1C` [Example 92, 1-(1,3-dimethylpyrazol-5-yl)-3-octadecylurea], the inhibition at 100 µM is under 20%.

The compound `CCCCCCCCCOCC(=O)Nc1cc(C2CC2)nn1C` [Example 106, N-(3-cyclopropyl-1-methylpyrazol-5-yl)-2-(nonyloxy)acetamide] came in with an inhibition at 100 µM of over 50%.

Turning to `CCCCCCCCCC(=O)N[C@@H]1CCCC[C@H]1O` (relative stereo) [Example 34, trans-N-(2-hydroxycyclohexyl)decanamide], the inhibition at 100 µM was in the range of 20 to 50%.

Turning to `CCCCCCCCCOCC(=O)Nc1ccc(F)cc1C(F)(F)F` [Example 103, N-(4-fluoro-2-(trifluoromethyl)phenyl)-2-(nonyloxy)acetamide], the inhibition at 100 µM lay within 20 to 50%.

`CCCCCCCCCCNC(=O)N(C)c1ccc(F)cc1` [Example 54, 3-decyl-1-(4-fluorophenyl)-1-methylurea] showed an inhibition at 100 µM of over 50%.

In turn, `CCCCCCCCCCCCNC(=O)Nc1cc(C)nn1C` [Example 83, 1-(1,3-dimethylpyrazol-5-yl)-3-dodecylurea] showed an inhibition at 100 µM of 20 to 50%.

As to `CCCCCCCCCC(=O)NC(=O)Nc1ccccc1C(F)(F)F` [Example 96, N-(2-(trifluoromethyl)phenylcarbamoyl)decanamide], the inhibition at 100 µM is under 20%.

`CCCCCCCCCCCC(=O)N1CCCC(C(=O)N2CCCC2)C1` (stereo not drawn) [Example 136, 1-(3-(pyrrolidine-1-carbonyl)piperidin-1-yl)dodecan-1-one] had an inhibition at 100 µM of under 20%.

For the compound `CCCCCCCCCOCC(=O)Nc1cc(-c2ccccc2)nn1C` [Example 108, N-(1-methyl-3-phenylpyrazol-5-yl)-2-(nonyloxy)acetamide], the inhibition at 100 µM was over 50%.

For the compound `CCCCCCCCCCNC(=O)N(C)c1ccc(F)cc1F` [Example 56, 3-decyl-1-(2,4-difluorophenyl)-1-methylurea], the inhibition at 100 µM was under 20%.

`CCCCCCCCCCCCCCCCCCNC(=O)Nc1cc(C(C)(C)C)nn1C` [Example 94, 1-(3-tert-butyl-1-methylpyrazol-5-yl)-3-octadecylurea] showed an inhibition at 100 µM of 20 to 50%.

Consider `CCCCOCCOCC(=O)N[C@@H](C)c1ccccc1` [Example 121, (S)-2-(2-butoxyethoxy)-N-(1-phenylethyl)acetamide], for which the inhibition at 100 µM is under 20%.

The compound `CCCCCCCCCOCC(=O)Nc1ccnn1CC` [Example 105, N-(1-ethylpyrazol-5-yl)-2-(nonyloxy)acetamide] showed an inhibition at 100 µM of over 50%.

Compound `CCCCCCCCCCCCCCCCNC(=O)Nc1cc(C(C)(C)C)nn1C` [Example 91, 1-(3-tert-butyl-1-methylpyrazol-5-yl)-3-hexadecylurea] showed an inhibition at 100 µM of 20 to 50%.

`CCCCCCCCCCCC(=O)N1CCC(C(N)=O)C1` (stereo not drawn) [Example 145, 1-dodecanoylpyrrolidine-3-carboxamide] had an inhibition at 100 µM of over 50%.

Compound `CCCCCCCCCCCC(=O)N(C)c1ccc(F)cc1F` [Example 22, N-(2,4-difluorophenyl)-N-methyldodecanamide] yielded an inhibition at 100 µM of over 50%.

Consider `CCN(CC)C(=O)C1CCCN(C(=O)CCCCCCCCCCCSC)C1` (stereo not drawn) [Example 141, N,N-diethyl-1-(12-(methylthio)dodecanoyl)piperidine-3-carboxamide], for which the inhibition at 100 µM was over 50%.

Compound `CCCCCCCCCCCC(=O)N(C)c1ccc(F)cc1` [Example 20, N-(4-fluorophenyl)-N-methyldodecanamide] came in with an inhibition at 100 µM of over 50%.

With `CCCCCCCCCCCC(=O)Nc1ccccc1C(F)(F)F` [Example 23, N-(2-(trifluoromethyl)phenyl)dodecanamide], the inhibition at 100 µM was under 20%.

With `CCCCCCCCCCCC(=O)N[C@@H](C)c1ccccc1` [Example 28, (S)-N-(1-phenylethyl)dodecanamide], the inhibition at 100 µM lay in the range of 20 to 50%.

As for `CCCCCCCCCCNC(=O)Nc1cc(C)nn1C` [Example 63, 1-decyl-3-(1,3-dimethylpyrazol-5-yl)urea], the inhibition at 100 µM lay within 20 to 50%.

In the case of `CCCCCCCCCCCC(=O)Nc1ccccc1C(=O)O` [Example 25, 2-dodecanamidobenzoic acid], the inhibition at 100 µM was over 50%.

Compound `COCCOCCOCC(=O)Nc1cc(C)ns1` [Example 129, 2-(2-(2-methoxyethoxy)ethoxy)-N-(3-methylisothiazol-5-yl)acetamide] showed an inhibition at 100 µM of under 20%.

`COCCOCCOCC(=O)N(C)c1ccc(F)cc1` [Example 125, N-(4-fluorophenyl)-2-(2-(2-methoxyethoxy)ethoxy)-N-methylacetamide] showed an inhibition at 100 µM of under 20%.

In turn, `CCCCCCCCCCCNC(=O)Nc1cc(C2CC2)nn1C` [Example 80, 1-(3-cyclopropyl-1-methylpyrazol-5-yl)-3-undecylurea] displayed an inhibition at 100 µM of 20 to 50%.
